Patent publication US20130078287A1 (Horizon Pharma USA, Inc., priority 2010, published 2013)
Marks after values point to notes of the source that are not given here.

Columns and labels:
[1] = tested on: subjects expected to require daily NSAID therapy; experiment: REDUCE-2 study: adverse events
Text: Randomization was stratified based on aspirin/anticoagulant therapy and prior ulcer history.
Secondary endpoints were gastric ulcers, duodenal ulcers, and serious GI complications.

[2] = tested on: subjects who completed REDUCE-1 or REDUCE-2 without ulcer; conditions: human, in vivo, 28 weeks
[3] = tested on: subjects expected to require daily NSAID therapy; experiment: Pooled REDUCE-1 and REDUCE-2: UGI ulcers by subgroup; type: in vivo, human; conditions: for Subjects who developed an upper gastrointestinal ulcer: clinical studies of HZT-501; for Proportion of subjects who developed at least one UGI ulcer: pooled, Week 24 life table
Text: In addition to examining potential risk factors together in a statistical model, the effect of treatment was examined in the combined studies overall and within various subgroups of interest. These subgroups included age category (<65, […]), prior history of UGI ulcer (yes, no), use of low-dose aspirin (LDA) (yes, no), and gender. […] Treatment was the only factor included in the model.

Question: Which “AEs Leading to Discontinuation, Incidence (%)” value [1] does the source give for `CC(C)Cc1ccc(C(C)C(=O)O)cc1` (stereo not shown) [Ibuprofen, 2-(p-isobutylphenyl)propionic acid] here?
Answer: 7.1%

Question: And the “AEs by Severity: Life Threatening, Incidence (%)” value [1]?
Answer: 0.0%

Question: What about the “AEs by Severity: Moderate, Incidence (%)” value [1] of the same molecule?
Answer: 21.7%

Question: And the “AEs by Severity: Severe, Incidence (%)” value [1]?
Answer: 6.6%

Question: And the “Abdominal Pain Upper, Incidence (%)” value [1]?
Answer: 1.9%

Question: And the “Any GI Event, Incidence (%)” value [1]?
Answer: 29.7* %

Question: What about the “Cardiac Disorders, Incidence (%)” value [1] of the same molecule?
Answer: 0.5%

Question: And the “Constipation, Incidence (%)” value [1]?
Answer: 3.8%

Question: What about the “Deaths, Incidence %” value [1] of the same molecule?
Answer: 0/0.0%

Question: And the “Diarrhea, Incidence (%)” value [1]?
Answer: 4.2%

Question: And the “Dyspepsia, Incidence (%)” value [1]?
Answer: 8.5** %

Question: What about the “General Disorders/Administrative Site Conditions, Incidence (%)” value [1] of the same molecule?
Answer: 3.8%

Question: And the “Hepatobiliary Disorders, Incidence (%)” value [1]?
Answer: 0.0%

Question: What about the “Hypertension, Incidence (%)” value [1] of the same molecule?
Answer: 1.9%

Question: What about the “Infections/Infestations, Incidence (%)” value [1] of the same molecule?
Answer: 19.3%

Question: And the “Injury, Poisoning, Procedural Complications, Incidence (%)” value [1]?
Answer: 3.8%

Question: And the “Investigations, Incidence (%)” value [1]?
Answer: 2.4%

Question: What about the “Musculoskeletal/connective Tissue Disorders, Incidence (%)” value [1] of the same molecule?
Answer: 5.2%

Question: And the “Nausea, Incidence (%)” value [1]?
Answer: 5.2%

Question: What about the “Nervous System Disorders, Incidence (%)” value [1] of the same molecule?
Answer: 4.7%

Question: And the “Renal and Urinary Disorders, Incidence (%)” value [1]?
Answer: 0.0%

Question: And the “Respiratory, Thoracic and Mediastinal Disorders, Incidence (%)” value [1]?
Answer: 4.7%

Question: What about the “SAEs leading to discontinuation, Incidence %” value [1] of the same molecule?
Answer: 2/0.9%

Question: What about the “Subjects with at least one AE, Incidence (%)” value [1] of the same molecule?
Answer: 54.7%

Question: And the “Total SAEs, Incidence %” value [1]?
Answer: 4/1.9%

Question: What about the “Withdrawals due to GI, Incidence (%)” value [1] of the same molecule?
Answer: 5.2*** %

Question: And the Viral infection [2]?
Answer: 2.1 (1) % (n)

Question: And the “Subjects who developed an upper gastrointestinal ulcer” value ([3]; subjects who used low-dose aspirin)?
Answer: 35%

Question: And the “Subjects who developed an upper gastrointestinal ulcer” value ([3]; subjects with a prior history of gastrointestinal ulcer)?
Answer: 24%

Question: What about the “Proportion of subjects who developed at least one UGI ulcer” value (shortened to “Proportion of subjects who developed”) ([3]; Age <65 years) of the same molecule?
Answer: 26.3%

Question: And the “Proportion of subjects who developed” value ([3]; Age ≧65 years)?
Answer: 26.6%

Question: And the “Proportion of subjects who developed” value ([3]; Age ≧65 years, listed as ibuprofen)?
Answer: 27%

Question: What about the “Proportion of subjects who developed” value ([3]; Female) of the same molecule?
Answer: 28.3%

Question: And the “Proportion of subjects who developed” value ([3]; Race Other)?
Answer: 13.3%
